Like-named read-outs stand apart in the source and are kept apart here.
Assays:
[1] = test system: Chlorella vulgaris; assay: Action against algae: Chlorella vulgaris; format: cell-based; design: key: --: no growth on the agar, 3 ppm have destroyed the algae in 6 hours; details: 3 mg/liter
Outline: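 14-day cultures diluted 1/200 in nutrient medium received compound at 3 mg/liter final. After 6 h, samples were spotted on algae/agar for algicidal action; growth inhibition in medium and killing on agar assessed visually after 14 days under 14 h light/10 h dark.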

[2] = test system: Enterobacter aerogenes; assay: Minimum inhibitory concentration against bacteria, strain C; format: cell-based; details: 24 hours at 30° C.; tested at 100 and 300 mg/liter
Outline: (§1)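 Overnight broth cultures were diluted 1/1000 in saline, then again 1/1000 into Caso peptone broth. Test compounds were added at 100 and 300 mg/liter, and samples were incubated 24 hours at 30° C. with shaking before turbidity was scored.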

[3] = test system: Cladosporium cladosporioides; assay: Minimum inhibitory concentration against fungi, agar incorporation test, strain O; format: cell-based; details: malt extract/agar
Outline: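 Compounds incorporated into malt extract agar at final concentrations of 2, 5, 10, 50 and 100 mg/liter, with fungal traces added dropwise. Value is the concentration (mg/liter) required to inhibit fungal growth.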

[4] = test system: Candida albicans; assay: Minimum inhibitory concentration against fungi, agar incorporation test, strain P; format: cell-based; details: malt extract/agar
Outline: (§2)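 MIC (mg/liter) defined as the concentration inhibiting fungal growth from dropwise trace inoculum on malt extract agar containing compound at 2, 5, 10, 50 or 100 mg/liter final.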

[5] = test system: Chaetomium globosum; assay: Minimum inhibitory concentration against fungi, agar incorporation test, strain S; format: cell-based; details: malt extract/agar
Outline: as §2

[6] = test system: Aspergillus niger; assay: Minimum inhibitory concentration against fungi, agar incorporation test, strain K; format: cell-based; details: malt extract/agar
Outline: as §2

[7] = test system: Endomyces geotrichum; assay: Minimum inhibitory concentration against fungi, agar incorporation test, strain Q; format: cell-based; details: malt extract/agar
Outline: as §2

[8] = test system: Pseudomonas aeruginosa; assay: Minimum inhibitory concentration against bacteria, strain B; format: cell-based; details: 24 hours at 30° C.; tested at 100 and 300 mg/liter
Outline: as §1

[9] = test system: Enteromorpha intestinalis; assay: Action against Enteromorpha intestinalis: destruction (minimum killing concentration); format: in vivo; details: 4 hours in seawater, then 6-8 weeks in fresh seawater
Procedure: (§3) The action against the green alga Enteromorpha, which is the most important in seawter fouling, is investigated in sterile-filtered seawater containing an Erd-Schreiber solution. This solution is composed of a nutrient extract, phosphate and nitrate. The incubation of Enteromorpha intestinalis is carried out in a light thermostat at 18° C. under an alternation of 14 hours of light and 10 hours of darkness.
The algae which have been cultured in this way are exposed to the products under investigation for a short time (4 hours) in seawater. The minimum killing concentration (MKC) is determined by taking the algae out of the seawater containing a specific quantity of algicide, after the treatment time in the latter, washing the algae and investigating growth or mortality after incubation in fresh seawater for a further period of 6-8 weeks.
The minimum killing concentration (MKC) indicates the amount of substance required to cause such damage to the algae within a specific time that they can no longer recover in fresh seawater and die out.

[10] = test system: Aureobasidium pullulans; assay: Minimum inhibitory concentration against fungi, agar incorporation test, strain R; format: cell-based; details: malt extract/agar
Outline: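 Compounds incorporated in malt extract agar at final 2, 5, 10, 50 and 100 mg/liter. Agar inoculated dropwise with traces of fungus. Value is the concentration (mg/liter) needed to inhibit growth.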

[11] = test system: Aspergillus phoenicis; assay: Minimum inhibitory concentration against fungi, agar incorporation test, strain L; format: cell-based; details: malt extract/agar
Outline: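 Agar incorporation test in malt extract agar with compound at final 2, 5, 10, 50 and 100 mg/liter, inoculated dropwise with fungus; value is concentration (mg/liter) inhibiting growth.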

[12] = test system: Alternaria alternata; assay: Minimum inhibitory concentration against fungi, agar incorporation test, strain N; format: cell-based; details: malt extract/agar
Outline: as §2

[13] = test system: Artemia salina; assay: Action against Artemia salina nauplii; format: in vivo; design: key: 0: no change; 1: slight change; 1-2: animals are attacked; 2: animals are strongly attacked; 2-3: animals are nearly all dead; 3: animals are all dead
Procedure: The eggs, which are available commercially, are caused to hatch by vigorous aeration. When 2-3 days old, the nauplii are exposed to the products at various concentrations (concentrations tested: 2.5; 1; 0.5 and 0.25 mg/liter) in synthetic seawater, and are observed over a prolonged period of time.

[14] = test system: Bacillus subtilis; assay: Minimum inhibitory concentration against bacteria, strain F; format: cell-based; details: 24 hours at 30° C.; tested at 100 and 300 mg/liter
Outline: as §1

[15] = test system: mixed culture of bacteria; format: cell-based; design: key: +: growth, no destruction; (+): growth less than that of control (>10 colonies), slight destruction; (-): slight growth (1-10 colonies); -: no growth, destruction
[16] = test system: Alcaligenes denitrificans; assay: Minimum inhibitory concentration against bacteria, strain E; format: cell-based; details: 24 hours at 30° C.; tested at 100 and 300 mg/liter
Outline: as §1

[17] = test system: Enteromorpha intestinalis; assay: Action against Enteromorpha intestinalis: inhibitory concentration (MIC); format: in vivo; details: seawater containing biocide for entire test; concentration tested 0.5 mg/liter
Procedure: as §3
For determining the inhibitory concentration (MIC), the algae are kept in seawater containing biocide for the entire duration of the test (concentration tested: 0.5 mg/liter).

[18] = test system: Serratia marcencens; assay: Minimum inhibitory concentration against bacteria, strain D; format: cell-based; details: 24 hours at 30° C.; tested at 100 and 300 mg/liter
Outline: as §1

[19] = test system: Proteus vulgaris; assay: Minimum inhibitory concentration against bacteria, strain A; format: cell-based; details: 24 hours at 30° C.; tested at 100 and 300 mg/liter
Outline: as §1

[20] = test system: Aureobasidium pullulans; assay: Growth on wood; design: key: 1: growth on the wood; 2: slight growth on the wood; 3: no growth on the wood; 4: no growth on the wood and an inhibitory zone; details: 28°, 4 weeks
Procedure: Small blocks of spruce wood, 7×10×10 mm in size, are dried in vacuo. The small blocks are then vacuum-impregnated by keeping them, in vacuo, in 100 ml of distilled water+biocide for 30 minutes and then subjecting them to a pressure treatment (2 atmospheres gauge by means of compressed air) for 18 hours in the water. The pieces of wood treated in this way are first subjected to leaching in running water and are then dried.
The dried pieces of wood are placed on potato/glucose agar and the wood, as well as the surrounding agar, is inoculated with 0.1 ml of a spore suspension of Aureobasidium pullulans. After incubation at 28° for 4 weeks, the growth is evaluated in accordance with the following rating: […]

[21] = test system: Penicillium funiculosum; assay: Minimum inhibitory concentration against fungi, agar incorporation test, strain M; format: cell-based; details: malt extract/agar
Outline: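 Compounds incorporated into malt extract agar at final 2, 5, 10, 50 and 100 mg/liter, then inoculated dropwise with fungus. Value is the concentration (mg/liter) inhibiting growth.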

Structure (SMILES): CCCCCCCCCCCCCC[N+](C)(C)Cc1ccccc1.CCC[CH2][Sn-]([Cl])([Cl])([CH2]CCC)[CH2]CCC [Example 2, dimethyl-benzyl-tetradecylammonium tributyldichlorostannate-(IV)]
- Growth on the agar (algae-destroying action) ([1]; 6 hours exposure, 14 days incubation): --
- Growth in the medium (growth inhibition) ([1]; 14 days): --
- MIC against bacteria, strain C [2]: 100 µg/mL
- MIC against fungi, strain O [3]: 2 µg/mL
- MIC against fungi, strain P [4]: 5 µg/mL
- MIC against fungi, strain S [5]: 2 µg/mL
- MIC against fungi, strain K [6]: 2 µg/mL
- MIC against fungi, strain Q [7]: 5 µg/mL
- MIC against bacteria, strain B [8]: 100 µg/mL
- Destruction, 5 mg/liter [9]: yes
- MIC against fungi, strain R [10]: 2 µg/mL
- MIC against fungi, strain L [11]: 2 µg/mL
- MIC against fungi, strain N [12]: 2 µg/mL
- Action against Artemia salina ([13]; 0,5 mg/l, 6 hours): 1-2
- Action against Artemia salina ([13]; 0,5 mg/l, 24 hours): 2-3
- Action against Artemia salina ([13]; 0,5 mg/l, 48 hours): 3
- Action against Artemia salina ([13]; 0,25 mg/l, 6 hours): 0-1
- Action against Artemia salina ([13]; 0,25 mg/l, 24 hours): 2
- Action against Artemia salina ([13]; 0,25 mg/l, 48 hours): 2-3
- Action against Artemia salina ([13]; 1 mg/l, 6 hours): 2
- Action against Artemia salina ([13]; 1 mg/l, 24 hours): 3
- Action against Artemia salina ([13]; 1 mg/l, 48 hours): 3
- Action against Artemia salina ([13]; 2,5 mg/l, 6 hours): 2-3
- Action against Artemia salina ([13]; 2,5 mg/l, 24 hours): 3
- Action against Artemia salina ([13]; 2,5 mg/l, 48 hours): 3
- MIC against bacteria, strain F [14]: 100 µg/mL
- Growth (destruction of a mixed culture of bacteria) ([15]; 5 mg/l, culture diluted 1/1000 in Tyrode): +
- Growth (destruction of a mixed culture of bacteria) ([15]; 5 mg/l, culture diluted 1/10000 in Tyrode): +
- Growth (destruction of a mixed culture of bacteria) ([15]; 10 mg/l, culture diluted 1/1000 in Tyrode): +
- Growth (destruction of a mixed culture of bacteria) ([15]; 10 mg/l, culture diluted 1/10000 in Tyrode): +
- Growth (destruction of a mixed culture of bacteria) ([15]; 30 mg/l, culture diluted 1/1000 in Tyrode): (+) (growth less than that of control (>10 colonies), slight destruction)
- Growth (destruction of a mixed culture of bacteria) ([15]; 30 mg/l, culture diluted 1/10000 in Tyrode): -
- Growth (destruction of a mixed culture of bacteria) ([15]; 60 mg/l, culture diluted 1/1000 in Tyrode): (+) (growth less than that of control (>10 colonies), slight destruction)
- Growth (destruction of a mixed culture of bacteria) ([15]; 60 mg/l, culture diluted 1/10000 in Tyrode): -
- Growth (destruction of a mixed culture of bacteria) ([15]; 100 mg/l, culture diluted 1/1000 in Tyrode): (-) (slight growth (1-10 colonies))
- Growth (destruction of a mixed culture of bacteria) ([15]; 100 mg/l, culture diluted 1/10000 in Tyrode): -
- MIC against bacteria, strain E [16]: 100 µg/mL
- MIC [17]: 0.5 µg/mL
- MIC against bacteria, strain D [18]: 100 µg/mL
- MIC against bacteria, strain A [19]: 100 µg/mL
- growth on wood, leached for 5 days ([20]; 0.01 % in H2 O): 4
- growth on wood, not leached ([20]; 0.01 % in H2 O): 4
- growth on wood, leached for 5 days ([20]; 0.05 % in H2 O): 4
- growth on wood, not leached ([20]; 0.05 % in H2 O): 4
- MIC against fungi, strain M [21]: 2 µg/mL

From US4578489A (priority 1982, dated 1986)
